According to patent US9555038B2, “Heterocycle-substituted tetracyclic compounds and methods of use thereof for the treatment of viral diseases” (Merck Sharp & Dohme Corp., priority 2013, dated 2017):
Like-named read-outs stand apart in the source and are kept apart here.

What was measured:
HCV replicon 2B = experiment: Cell-based HCV Replicon Assay A, replicon 2B
Description: (§1) To measure cell-based anti-HCV activity of compounds of the present invention, two complimentary assays were employed using various replicons. In the first assay (“Replicon Assay A”), replicon cells were seeded at 2000 cells/well in 384-well 384-well flat bottom tissue culture treated clear bottom plate (Corning 3707) in the presence of the test compound. Various concentrations of test compound, typically in 10 serial dilutions, were added to the assay mixture, with the starting concentration ranging from 333.3 nM to […]. The final concentration of DMSO was 0.5%. Fetal bovine serum was 5%, in the assay media. Cells were harvested on day 3 by removing media and washing the cells with a suitable wash buffer. The cells are lysed with the addition of 1× Qiagen lysis buffer (Cat #1062731). The replicon RNA level was measured using real time PCR (TaqMan® EZ RT-PCR, Applied Biosystems 403028) with the following primers and probes: […]
(§2) Cyclophilin RNA was used as endogenous control and was amplified in the same reaction as NS5B (multiplex PCR). The real-time RT-PCR reactions were run on ABI PRISM 7900HT Sequence Detection System using the following program: 50° C. for 2 minutes, 60° C. for 30 minutes, 95° C. for 5 minutes, 40 cycles of 94° C. for 20 sec, 55° C. for 1 minutes.
(§3) The amount of HCV replicon RNA per cell is quantified using a linear regression curve for a known nanogram (ng) amount of HCV replicon total RNA. This is established by plotting the Cycle Threshold values (Ct) from the Neo probe and primer set versus the log (ng) for each HCV replicon total RNA standard. The amount of HCV RNA for each replicon sample is calculated by taking the sample's Ct value, minus the line intercept, divided by the slope of the line. Similarly, the amount of Cyclophilin mRNA per cell is also quantified using a linear regression curve for a known nanogram (ng) amount of HCV replicon total RNA. Again, this is established by plotting the Cycle Threshold values (Ct) from the Cyclophilin probe and primer set versus the log (ng) for each HCV replicon total RNA standard.
(§4) Data was obtained for various compounds of the present invention using the methods described in the Example above, and is presented in the table immediately below. Data for replicons 1A, 1AY93H and 2B were obtained using Replicon Assay A and data for replicons 1AQ30D and 1B were obtained using Replicon Assay B.

HCV replicon 1AY93H = experiment: Cell-based HCV Replicon Assay A, replicon 1AY93H
Description: as §1, §2, §3, §4

HCV replicon 1A = experiment: Cell-based HCV Replicon Assay A, replicon 1A
Description: as §1, §2, §3, §4

[1] = Hepatitis C virus, read-out: 2B IC50 (nM), replicon 2B
[2] = Hepatitis C virus, read-out: 1A Y93H IC50 (nM), replicon 1AY93H
[3] = read-out: 1A Y93H IC50, replicon 1AY93H

SMILES | IC50 (HCV replicon 2B; [1]) | IC50 (HCV replicon 1AY93H; [2]) | IC50 (HCV replicon 1A; Hepatitis C virus) | IC50 (HCV replicon 2B; read-out: 2B IC50, replicon 2B) | IC50 (HCV replicon 1AY93H; [3]) | IC50 (HCV replicon 1A) | IC50 (HCV replicon 1AY93H; replicon 1AY93H, read-out: 1A Y93H IC50)
COC(=O)N[C@H](C(=O)C1CCC[C@H]1c1ncc(-c2ccc3c(c2)cc2n3C(c3cnc(CC(C)C)s3)Oc3cc(-c4cnc([C@@H]5CCCN5C(=O)[C@@H](NC(=O)OC)C(C)C)[nH]4)cc(F)c3-2)[nH]1)C(C)C (mixture of isomers) [Compound 403] | 0.142 nM | 0.016 nM | 0.0064 nM | – | – | – | –
CCN(CC)c1ncc(C2Oc3cc(-c4cnc([C@@H]5CCCN5C(=O)[C@@H](NC(=O)OC)C(C)C)[nH]4)cc(F)c3-c3cc4cc(-c5cnc([C@@H]6CCCN6C(=O)[C@@H](NC(=O)OC)C(C)C)[nH]5)ccc4n32)s1 (mixture of isomers) [Compound 404] | 0.206 nM | 0.0386 nM | 0.012 nM | – | – | – | –
COC(=O)N[C@H](C(=O)N1CCC[C@H]1c1ncc(-c2cc(F)c3c(c2)OC(c2cn4ccnc4s2)n2c-3cc3cc(-c4cnc([C@@H]5CCCN5C(=O)[C@@H](NC(=O)OC)C(C)C)[nH]4)ccc32)[nH]1)C(C)C (mixture of isomers) [Compound 417] | 0.453 nM | 0.996 nM | 0.0031 nM | – | – | – | –
COC(=O)N[C@H](C(=O)N1CCC[C@H]1c1ncc(-c2cc(F)c3c(c2)OC(c2cnc(-c4cnn(C)c4)s2)n2c-3cc3cc(-c4cnc([C@@H]5CCCN5C(=O)[C@@H](NC(=O)OC)C(C)C)[nH]4)ccc32)[nH]1)C(C)C (mixture of isomers) [Compound 425] | 1.78 nM | 0.534 nM | 0.0069 nM | – | – | – | –
COC(=O)N[C@H](C(=O)N1CCC[C@H]1c1ncc(-c2cc(F)c3c(c2)OC(c2ncc(C4CC4)s2)n2c-3cc3cc(-c4cnc([C@@H]5CCCN5C(=O)[C@@H](NC(=O)OC)C(C)C)[nH]4)ccc32)[nH]1)C(C)C (single isomer, unassigned) [Compound 7] | – | – | 0.0014 nM | 2.14 nM | 4.23 nM | – | –
COC(=O)N[C@H](C(=O)N1CCC[C@H]1c1ncc(-c2cc(F)c3c(c2)OC(c2ncc(C4CC4)s2)n2c-3cc3cc(-c4cnc([C@@H]5CCCN5C(=O)[C@@H](NC(=O)OC)C(C)C)[nH]4)ccc32)[nH]1)C(C)C (single isomer, unassigned) [Compound 8] | – | – | – | 0.14 nM | 0.15 nM | 0.0017 nM | –
COC(=O)N[C@H](C(=O)N1CCC[C@H]1c1ncc(-c2cc(F)c3c(c2)OC(c2cnc(C4CC4)s2)n2c-3cc3cc(-c4cnc([C@@H]5CCCN5C(=O)[C@@H](NC(=O)OC)C(C)C)[nH]4)ccc32)[nH]1)C(C)C (single isomer, unassigned) [Compound 9] | – | – | 0.0016 nM | 1.56 nM | 0.86 nM | – | –
COC(=O)N[C@H](C(=O)N1CCC[C@H]1c1ncc(-c2cc(F)c3c(c2)OC(c2cnc(OC)s2)n2c-3cc3cc(-c4cnc([C@@H]5CCCN5C(=O)[C@@H](NC(=O)OC)C(C)C)[nH]4)ccc32)[nH]1)C(C)C (single isomer, unassigned) [Compound 13] | – | – | 0.0011 nM | 0.446 nM | 0.621 nM | – | –
COC(=O)NC(C(=O)N1CCC[C@H]1c1ncc(-c2ccc3c(c2)cc2n3C(c3cnc(C)s3)Oc3cc(-c4cnc([C@@H]5CCCN5C(=O)[C@@H](NC(=O)OC)C(C)C)[nH]4)cc(F)c3-2)[nH]1)C1C[C@@H](C)O[C@@H](C)C1 (single isomer, unassigned) [Compound 29] | – | – | 0.002 nM | 0.192 nM | 1.09 nM | – | –
COC(=O)N[C@H](C(=O)N1CCC[C@H]1c1ncc(-c2cc(F)c3c(c2)OC(c2cnc(-c4ccc(F)cc4)s2)n2c-3cc3cc(-c4cnc([C@@H]5CCCN5C(=O)[C@@H](NC(=O)OC)C(C)C)[nH]4)ccc32)[nH]1)C(C)C (single isomer, unassigned) [Compound 32] | – | – | – | 0.231 nM | 0.344 nM | 0.0012 nM | –
CCc1ncc(C2Oc3cc(-c4cnc([C@@H]5CCCN5C(=O)[C@@H](NC(=O)OC)C(C)C)[nH]4)cc(F)c3-c3cc4cc(-c5cnc([C@@H]6CCCN6C(=O)C(NC(=O)OC)C6C[C@@H](C)O[C@@H](C)C6)[nH]5)ccc4n32)s1 (single isomer, unassigned) [Compound 35] | – | – | 0.0026 nM | 0.125 nM | 0.161 nM | – | –
CCc1ncc(C2Oc3cc(-c4cnc([C@@H]5CCCN5C(=O)[C@@H](NC(=O)OC)C(C)C)[nH]4)cc(F)c3-c3cc4cc(-c5cnc([C@@H]6CCCN6C(=O)C(NC(=O)OC)C6CCOC(C)(C)C6)[nH]5)ccc4n32)s1 (single isomer, unassigned) [Compound 37] | – | – | 0.0022 nM | 0.226 nM | 0.257 nM | – | –
CCc1ncc(C2Oc3cc(-c4cnc([C@@H]5CCCN5C(=O)[C@@H](NC(=O)OC)C(C)C)[nH]4)cc(F)c3-c3cc4cc(-c5cnc([C@@H]6CCCN6C(=O)C(NC(=O)OC)C6CCOC(C)(C)C6)[nH]5)ccc4n32)s1 (single isomer, unassigned) [Compound 39] | – | – | – | 0.004 nM | 0.0112 nM | 0.0037 nM | –
COC(=O)N[C@H](C(=O)N1CCC[C@H]1c1ncc(-c2cc(F)c3c(c2)OC(c2cnc(-c4ccc(Cl)cc4)s2)n2c-3cc3cc(-c4cnc([C@@H]5CCCN5C(=O)[C@@H](NC(=O)OC)C(C)C)[nH]4)ccc32)[nH]1)C(C)C (single isomer, unassigned) [Compound 54] | – | – | – | 0.248 nM | 0.429 nM | 0.0013 nM | –
COC(=O)NC(C(=O)N1CCC[C@H]1c1ncc(-c2ccc3c(c2)cc2n3C(c3cnc(C(C)C)s3)Oc3cc(-c4cnc([C@@H]5CCCN5C(=O)[C@@H](NC(=O)OC)C(C)C)[nH]4)cc(F)c3-2)[nH]1)C1C[C@@H](C)O[C@@H](C)C1 (single isomer, unassigned) [Compound 56] | – | – | 0.0011 nM | 0.104 nM | 0.285 nM | – | –
CCCc1ncc(C2Oc3cc(-c4cnc([C@@H]5CCCN5C(=O)[C@@H](NC(=O)OC)C(C)C)[nH]4)cc(F)c3-c3cc4cc(-c5cnc([C@@H]6CCCN6C(=O)C(NC(=O)OC)C6CCOC(C)(C)C6)[nH]5)ccc4n32)s1 (single isomer, unassigned) [Compound 58] | – | – | 0.0026 nM | 0.003 nM | 0.0086 nM | – | –
COC(=O)NC(C(=O)N1CCC[C@H]1c1ncc(-c2ccc3c(c2)cc2n3C(c3cnc(C(C)C)s3)Oc3cc(-c4cnc([C@@H]5CCCN5C(=O)[C@@H](NC(=O)OC)C(C)C)[nH]4)cc(F)c3-2)[nH]1)C1CCOC(C)(C)C1 (single isomer, unassigned) [Compound 62] | – | 0.212 nM | – | 0.427 nM | – | 0.0018 nM | –
COC(=O)NC(C(=O)N1CCC[C@H]1c1ncc(-c2ccc3c(c2)cc2n3C(c3cnc(C(C)C)s3)Oc3cc(-c4cnc([C@@H]5CCCN5C(=O)[C@@H](NC(=O)OC)C(C)C)[nH]4)cc(F)c3-2)[nH]1)C1CCOC(C)(C)C1 (single isomer, unassigned) [Compound 63] | – | – | – | 1.67 nM | 0.254 nM | 0.0483 nM | –
COC(=O)NC(C(=O)N1[C@@H]2C[C@@H]2C[C@H]1c1ncc(-c2ccc3c(c2)cc2n3C(c3ncc(C4CC4)s3)Oc3cc(-c4cnc([C@@H]5CCCN5C(=O)[C@@H](NC(=O)OC)C(C)C)[nH]4)cc(F)c3-2)[nH]1)C1C[C@@H](C)O[C@@H](C)C1 (single isomer, unassigned) [Compound 64] | – | – | 0.0012 nM | 0.268 nM | 0.159 nM | – | –
COC(=O)NC(C(=O)N1[C@@H]2C[C@@H]2C[C@H]1c1ncc(-c2ccc3c(c2)cc2n3C(c3cnc(C(C)C)s3)Oc3cc(-c4cnc([C@@H]5CCCN5C(=O)[C@@H](NC(=O)OC)C(C)C)[nH]4)cc(F)c3-2)[nH]1)C1CCOC(C)(C)C1 (single isomer, unassigned) [Compound 68] | 0.253 nM | – | – | – | 0.0996 nM | 0.0014 nM | –
COC(=O)NC(C(=O)N1CCC[C@H]1c1ncc(-c2ccc3c(c2)cc2n3C(c3nc(C(F)(F)F)cs3)Oc3cc(-c4cnc([C@@H]5CCCN5C(=O)[C@@H](NC(=O)OC)C(C)C)[nH]4)cc(F)c3-2)[nH]1)C1C[C@@H](C)O[C@@H](C)C1 (single isomer, unassigned) [Compound 75] | – | – | 0.0022 nM | 0.491 nM | 0.875 nM | – | –
CCc1nnc(C2Oc3cc(-c4cnc([C@@H]5CCCN5C(=O)[C@@H](NC(=O)OC)C(C)C)[nH]4)cc(F)c3-c3cc4cc(-c5cnc([C@@H]6CCCN6C(=O)C(NC(=O)OC)C(C)C)[nH]5)ccc4n32)s1 (single isomer, unassigned) [Compound 115] | – | 0.79 nM | – | – | – | 0.008 nM | –
COC(=O)N[C@H](C(=O)N1CCC[C@H]1c1ncc(-c2cc(F)c3c(c2)OC(c2cnc(CC(C)(C)C)s2)n2c-3cc3cc(-c4cnc([C@@H]5CCCN5C(=O)[C@@H](NC(=O)OC)C(C)C)[nH]4)ccc32)[nH]1)C(C)C (single isomer, unassigned) [Compound 523] | – | – | – | – | – | 0.0012 nM | 0.13 nM
